Source: patent US12441690B2, “Benzamide derivative compound, method for preparing same, and pharmaceutical composition for treating or preventing inflammatory disease containing same as active ingredient” (SEOUL NATIONAL UNIVERSITY R&DB FOUNDATION, priority 2017, dated 2025)

Legend:
PDE4B enzyme = PDE4B enzyme (Homo sapiens (Human), UniProt Q07343); test: PDE4B inhibitory activity, LANCE Ultra cAMP assay; type: biochemical; conditions: 50% inhibition from cAMP to 5′AMP
Description: In order to evaluate the PDE4B inhibitory activity of the compounds according to the present invention, the following experiment was performed using LANCE Ultra cAMP assay kit (Perkin Elmer, U.S.A).
Particularly, 5 μl of the 3 nM cAMP dissolved reaction buffer was added to each reaction well (LANCE Ultra cAMP assay kit). Then, each example compound dilution solution (2.5 μl) and PDE4B enzyme (0.1 ng/well, BPS Biosciences, San Diego, U.S.A) were added to the well, followed by incubation for 1 hour at 37° C. Next, 5 μl of ULight-anti-cAMP detection reactant supplemented with 5 μl of Eu-cAMP tracer and 1 mM IBMX (LANCE Ultra cAMP assay kit) was added thereto, followed by incubation for 1 hour at 37° C.

[1] = molecular target: PDE4B GFP fusion protein (human PDE4B2A) (Homo sapiens (Human), UniProt Q07343); test: PDE4B GFP fusion protein-inhibitor assay in HEK-293 cells; type: cell-based
Description: To evaluate the intracellular enzyme inhibitory activity of the compounds of Examples 1 and 25, PDE4B GFP fusion protein-inhibitor assay was performed using GFP (green fluorescent protein).
The DNA complementary to human PDE4B2A was amplified by PCR using the DNA genome extracted from the human blood sample (QIAamp DNA Blood Mini Kit, Qiagen, Valencia, CA, U.S.A.).
For DNA amplification, 5′-[…]-3′ was used as a forward primer, and 5′-[…]-3′ was used as a reverse primer.
The amplified PDE4B2A cDNA was cloned into pAcGFP1-N1, the mammalian expression mediator, between the EcoR1 and BamH1 restriction enzyme sites, which was transfected into E. coli DH5α cells using chemical transformation reagents (Invitrogen, Carlsbad, CA, U.S.A.).
Plasmids were isolated from the colonies with kanamycin using Plasmid Midi Kit (Qiagen, Valencia, CA, U.S.A.). Then, the plasmid cloned with PDE4B2A gene was transfected into HEK-293 cells (Korean Cell Line Bank, Seoul, Korea) using lipofectamine 3000 (Invitrogen).
The transfected cells were cultured in DMEM at 37° C. for 48 hours in a CO2 incubator. […] Upon completion of the culture, the fluorescence emission of HEK-293 cells was measured by confocal microscopy to perform quantitative analysis, and the results are shown in FIGS. 1 and 2.
In addition, the ratio of the surface cover area of GFP to the total cell surface area was measured using MetaMorph software, and the results are shown in FIG. 2.

[2] = system: Nc/Nga mice treated with DNCB; test: Relief of atopic symptoms in Nc/Nga mice treated with DNCB; type: in vivo, mouse; conditions: for weight of the spleen: DNCB-treated mice; for lymph node size / number of scratches for 20 minutes / symptoms of hypertrophy and edema of incised dorsal skin / weight of the lymph node: compared to mouse treated with DNCB alone; for skin thickness: incised dorsal skin, DNCB alone 1.19 mm, control 0.45 mm; for side effects: mouse treated with the compound alone, applied on dorsal skin; for incidence of inflammation on the dorsal skin: treated together with DNCB, compared to DNCB only, last day of experiment; for dermatitis score at week 5: treated with DNCB, total of 12 points
Description: In order to confirm the atopic dermatitis alleviation effect of the compounds of Examples 1 and 25 according to the present invention, atopic symptom relief experiments were performed on the mice with atopic symptoms.
DNCB (dinitrochlorobenzene) was applied on the back of Nc/Nga mouse to induce atopic dermatitis-like symptoms.
As a carrier for treating DNCB, acetone-olive oil in which acetone and olive oil were mixed (3:1) was used. Six groups of mice were prepared as follows: mice treated with the carrier alone; mice treated with Example 1 compound, mice treated with Example 25 compound, mice treated with DNCB alone, mice treated with DNCB and Example 1 compound, and mice treated with DNCB and Example 25 compound.
Particularly, 2 days before the start of the experiment, hair of the dorsal skin of the mouse was removed. After 2 days after removing the hair, 150 μl of 1% DNCB was dissolved in a carrier and applied on the dorsal skin of the mouse. Four days later, the same solution was applied on the dorsal skin of the mouse once again. Then, 150 μl of 0.2% DNCB solution was applied on the dorsal skin of the mouse once a week for 5 weeks. The experimental group mice were applied with the compounds of Example 1 and Example 25 daily from the 6th day of the experiment to the end of the experiment.
The degree of atopic symptoms in the experimental group and control group mice was evaluated and quantified once a week for a period of 5 weeks. Scores were given as follows for the four items of erythema/bleeding, edema, threshing/corrosion, scaling/dryness, respectively: 1 (none); 2 (moderate); and 3 (serious). Each experimental group and control group was scored based on a total of 12 points.
In order to confirm the effect of the compounds according to the present invention on relieving itching, the number of scratches for 20 minutes of each mouse of the experimental group and control group was measured, and the results are shown graphically in FIG. 5(a), (b).
After completing the experiment, the physical changes were observed by incising the dorsal skin of the experimental group and control group mice. As a result, hypertrophy and edema were clearly observed in the mouse treated with DNCB alone.
In addition, to confirm the alleviating effect of the compounds according to the present invention on skin hypertrophy, the incised skin thickness was measured, and the results are shown graphically in FIG. 5(b).
In order to confirm the effect of the compounds according to the present invention, the lymph node of each mouse of the experimental group and control group was separated and observed. The lymph node is an interaction site between the antigen and immune cells, and since the size of the lymph node increases during the development of inflammatory symptoms, it is possible to confirm the presence or absence of inflammatory disease depending on the size of the lymph node. The photographs of the separated lymph node of each mouse of the experimental group and control group are shown in FIG. 6(a), and the weight of the lymph node and the spleen of each mouse of the experimental group and control group are shown in FIG. 6(b) and FIG. 6(c).

[3] = system: dorsal skin tissue of Nc/Nga mice treated with DNCB; test: Observation of mouse dorsal skin tissue (H&E, toluidine blue, CD4+ cell staining); type: in vivo; conditions: for expression of IFN-γ in CD4+ cells / expression of IL-4 of CD4+ cells / expression of IL-5 of CD4+ cells / expression of IL-17 of CD4+ cells: applied on the skin; for expression of IL-4 of CD4+ cells / expression of IL-5 of CD4+ cells / expression of IL-17 of CD4+ cells: compared to DNCB alone; for number of mast cells in skin tissue (toluidine blue): compared to mouse treated with DNCB alone; for skin structure of tissue sections (H&E): groups treated with the compound without DNCB; for epidermal hyperplasia and keratosis (H&E) / inflammatory cells in skin sections (H&E): treated with DNCB
Description: The dorsal skin samples were obtained from the experimental group and control group mice. The samples were fixed using 10% neutral buffered formalin and then embedded in paraffin. 4 μm thin tissue sections were prepared and stained with H & E (hematoxylin & eosin). […] In addition, the sections were stained with toluidine blue to investigate mast cell infiltration. Then, the stained tissue sections were photographed using NikonAX70 optical microscope (Tokyo, Japan).
In addition, the mouse tissue CD4+ cells were stained to confirm the expressions of IL-17, IFN-γ, IL-4 and IL-5.

[4] = system: IL-4, IL-5, IFN-γ, IL-17 and IgE in mouse skin tissues; test: Sandwich ELISA with mouse skin tissues; type: in vivo; conditions: for expression of IL-4 (ELISA) / expression of IL-5 (ELISA) / expression of IL-17 (ELISA): DNCB; for expression of IgE (ELISA): treated with DNCB
Description: To confirm the effect of the compounds according to the present invention on the synthesis of DNCB-induced IgE and inflammatory mediators, ELISA (Enzyme-Linked ImmunoSorbent Assay) was performed with the control group and the experimental group treated with the compounds of Example 1 and Example 25.
FIG. 11(a)-FIG. 11(e) are graphs showing the expression levels of IL-4, IL-5, IFN-γ, IL-17 and IgE, respectively, shown when performing sandwich ELISA (Enzyme-Linked ImmunoSorbent Assay) with the mouse skin tissues.

[5] = system: TNF-α secretion in human PBMC cells; test: Inhibition of TNF-α synthesis in LPS-stimulated human PBMC cells; type: cell-based; conditions: human PBMC cells stimulated using bacterial LPS
Description: In addition, to evaluate the inhibitory effect of the compounds of Example 1 and Example 25 on the synthesis of TNF-α, in vitro assay was performed. Particularly, after culturing human PBMC cells, the secretion of TNF-α was stimulated using bacterial LPS, and the expression level of TNF-α was measured.

[6] = 24 hours, compared to control group not-treated with any inhibitor
[7] = at the concentrations of 100 nM and 500 nM

Chain of PDE4B GFP fusion protein (human PDE4B2A) (Q07343 other isoform, or with tags, fused parts or gaps): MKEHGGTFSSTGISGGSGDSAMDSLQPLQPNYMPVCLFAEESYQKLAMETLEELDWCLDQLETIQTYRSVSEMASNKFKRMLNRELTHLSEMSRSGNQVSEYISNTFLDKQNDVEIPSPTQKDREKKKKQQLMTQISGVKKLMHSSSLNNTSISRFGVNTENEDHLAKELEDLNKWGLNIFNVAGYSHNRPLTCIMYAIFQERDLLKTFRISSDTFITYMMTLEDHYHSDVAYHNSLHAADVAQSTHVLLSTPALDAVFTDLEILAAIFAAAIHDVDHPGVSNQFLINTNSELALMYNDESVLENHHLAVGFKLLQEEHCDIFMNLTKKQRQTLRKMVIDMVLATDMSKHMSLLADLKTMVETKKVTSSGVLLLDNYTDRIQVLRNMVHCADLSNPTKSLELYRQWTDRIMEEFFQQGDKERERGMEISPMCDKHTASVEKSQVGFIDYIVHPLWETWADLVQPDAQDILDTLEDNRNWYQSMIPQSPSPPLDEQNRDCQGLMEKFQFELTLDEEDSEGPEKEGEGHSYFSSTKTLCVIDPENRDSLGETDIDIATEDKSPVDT
Chain of PDE4B enzyme (Q07343 whole entry): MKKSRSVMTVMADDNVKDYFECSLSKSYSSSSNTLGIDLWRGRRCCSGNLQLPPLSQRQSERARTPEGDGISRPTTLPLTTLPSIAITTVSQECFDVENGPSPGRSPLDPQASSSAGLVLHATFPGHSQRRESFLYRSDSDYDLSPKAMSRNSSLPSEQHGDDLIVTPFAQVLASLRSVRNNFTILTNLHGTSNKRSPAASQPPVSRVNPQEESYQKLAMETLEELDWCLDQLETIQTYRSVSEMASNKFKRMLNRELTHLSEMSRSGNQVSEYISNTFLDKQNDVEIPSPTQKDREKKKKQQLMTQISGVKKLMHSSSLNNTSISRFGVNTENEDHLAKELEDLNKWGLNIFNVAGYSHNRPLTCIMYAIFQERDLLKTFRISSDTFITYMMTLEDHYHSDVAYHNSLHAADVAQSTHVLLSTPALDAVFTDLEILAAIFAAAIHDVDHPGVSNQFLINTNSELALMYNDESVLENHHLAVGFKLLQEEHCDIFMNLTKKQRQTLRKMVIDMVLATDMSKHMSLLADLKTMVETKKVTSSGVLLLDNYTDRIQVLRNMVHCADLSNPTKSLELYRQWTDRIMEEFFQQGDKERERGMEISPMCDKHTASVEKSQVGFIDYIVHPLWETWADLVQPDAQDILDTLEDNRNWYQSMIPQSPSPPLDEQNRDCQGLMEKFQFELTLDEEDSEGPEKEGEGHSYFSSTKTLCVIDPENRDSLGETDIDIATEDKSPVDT

COc1ccc(NC(=O)c2cnc(SC)nc2N2CCOCC2)cc1OC [Example 1, N-(3,4-dimethoxyphenyl)-2-(methylthio)-4-morpholinopyrimidine-5-carboxamide]
IC50 (PDE4B enzyme): 31 nM | fluorescence intensity of PDE4B GFP fusion protein [1, 6]: relatively weak | fluorescence intensity of PDE4B GFP fusion protein [1, 7]: significantly reduced | weight of the spleen [2]: significantly reduced | lymph node size [2]: significantly reduced | number of scratches for 20 minutes [2]: significantly less | symptoms of hypertrophy and edema of incised dorsal skin [2]: no symptoms of hypertrophy and edema | weight of the lymph node [2]: significantly reduced | skin thickness [2]: 0.83 mm | side effects [2]: no side effects were observed | incidence of inflammation on the dorsal skin [2]: significantly reduced | dermatitis score at week 5 [2]: less than 3 | expression of IFN-γ in CD4+ cells [3]: activated | expression of IL-4 of CD4+ cells [3]: more suppressed | expression of IL-5 of CD4+ cells [3]: more suppressed | expression of IL-17 of CD4+ cells [3]: more suppressed | number of mast cells in skin tissue (toluidine blue) [3]: significantly reduced | skin structure of tissue sections (H&E) [3]: normal skin structure | epidermal hyperplasia and keratosis (H&E) [3]: significantly reduced | inflammatory cells in skin sections (H&E) [3]: almost no inflammatory cells | expression of IFN-γ (ELISA) [4]: high | expression of IL-4 (ELISA) [4]: significantly suppressed | expression of IL-5 (ELISA) [4]: significantly suppressed | expression of IL-17 (ELISA) [4]: significantly suppressed | expression of IgE (ELISA) [4]: significantly reduced | synthesis of TNF-α [5]: effectively inhibited

COc1ccc(-c2nc(C(F)(F)F)ncc2C(=O)Nc2ccncc2)cc1OC [Example 25, 4-(3,4-dimethoxyphenyl)-N-(pyridine-4-yl)-2-(trifluoromethyl)pyrimidine-5-carboxamide]
IC50 (PDE4B enzyme): 15 nM | fluorescence intensity of PDE4B GFP fusion protein [1, 6]: relatively weak | fluorescence intensity of PDE4B GFP fusion protein [1, 7]: significantly reduced | weight of the spleen [2]: significantly reduced | lymph node size [2]: significantly reduced | number of scratches for 20 minutes [2]: significantly less | symptoms of hypertrophy and edema of incised dorsal skin [2]: no symptoms of hypertrophy and edema | weight of the lymph node [2]: significantly reduced | skin thickness [2]: 0.71 mm | side effects [2]: no side effects were observed | incidence of inflammation on the dorsal skin [2]: significantly reduced | dermatitis score at week 5 [2]: less than 3 | expression of IFN-γ in CD4+ cells [3]: activated | expression of IL-4 of CD4+ cells [3]: more suppressed | expression of IL-5 of CD4+ cells [3]: more suppressed | expression of IL-17 of CD4+ cells [3]: more suppressed | number of mast cells in skin tissue (toluidine blue) [3]: significantly reduced | skin structure of tissue sections (H&E) [3]: normal skin structure | epidermal hyperplasia and keratosis (H&E) [3]: significantly reduced | inflammatory cells in skin sections (H&E) [3]: almost no inflammatory cells | expression of IFN-γ (ELISA) [4]: high | expression of IL-4 (ELISA) [4]: significantly suppressed | expression of IL-5 (ELISA) [4]: significantly suppressed | expression of IL-17 (ELISA) [4]: significantly suppressed | expression of IgE (ELISA) [4]: significantly reduced | synthesis of TNF-α [5]: effectively inhibited
